Where “and” joins values, the source holds several entries; their conditions need not be identical. Identical values can stand only once.
What was measured:
[1] = in vivo; cited from earlier work
[2] = Stability of active ingredient in volatile solvents, 20-28 hours at ambient (UPLC assay and impurities); details: for Assay (as % of nominal): vial replicates
Description: Note the incubation for the stability studies were all performed in a similar way: • All were put into 4 mL amber glass vials. • The Initial samples were not analysed as soon as sampled but instead were frozen at −20° C. until the point of analysing the incubated samples (e.g after 28 days at 25, 40 or 50° C.) to avoid degradation of the active ingredient.
Chemical stability was determined by assay (results in Table 8) and quantification of potential active ingredient related substances (shown in
Table 9). […] The objective was to establish whether any active ingredient-related substances might be increasing as a result of the ambient hold.

[3] = 0.1 M HCl, 24 hour, listed as active ingredient
[4] = 0.1 M HCl, Initial, listed as active ingredient
[5] = 5% SLS aq., 24 hour, listed as active ingredient
[6] = 5% SLS aq., Initial, listed as active ingredient

CCS(=O)(=O)Nc1ccc2c(c1)nc(C(C)(C)C)n2CC1CCC(F)(F)CC1 [Compound I, N-(2-(tert-butyl)-1-((4,4-difluorocyclohexyl)methyl)-1H-benzimidazol-5-yl)ethanesulfonamide]
CNS-psychoactive effects [1]: does not cause CNS-psychoactive effects | Effect on appetite [1]: stimulate appetite in a dose-dependent manner | Impurity peak area, RRT 0.38 ([2]; 0.1 M HCl, 24 hour): 0.07 % of Total | Impurity peak area, RRT 0.61 ([2]; 0.1 M HCl, 24 hour): <0.05 % of Total | Impurity peak area, RRT 0.83 ([2]; 0.1 M HCl, 24 hour): 0.11 % of Total | Impurity peak area, RRT 0.85 ([2]; 0.1 M HCl, 24 hour): 0.07 % of Total | Impurity peak area, RRT 0.92 ([2]; 0.1 M HCl, 24 hour): 0.09 % of Total | Impurity peak area, RRT 0.62 [2, 3]: <0.05 % of Total and 0.05 % of Total | Impurity peak area, RRT 0.84* [2, 3]: 0.27 % of Total and 0.34 % of Total | Impurity peak area, RRT 0.86^$ (PDA spectra unrelated to the active ingredient) [2, 3]: <0.05 % of Total and 0.05 % of Total | Impurity peak area, RRT 0.98* (first row) [2, 3]: 0.24 % of Total and 0.22 % of Total | Impurity peak area, RRT 0.98* (second row) [2, 3]: 0.12 % of Total and 0.13 % of Total | Impurity peak area, RRT 1.04* [2, 3]: 0.05 % of Total and <0.05 % of Total | Impurity peak area, RRT 1.23* [2, 3]: 0.16 % of Total and 0.15 % of Total | Impurity peak area, RRT 1.24* [2, 3]: <0.05 % of Total and 0.05 % of Total | Impurity peak area, RRT 1.35* [2, 3]: 0.07 % of Total and 0.06 % of Total | Impurity peak area, RRT 1.36* [2, 3]: <0.05 % of Total and 0.05 % of Total | Impurity peak area, Total [2, 3]: 1.00 % of Total and 1.44 % of Total | Impurity peak area, Total excluding artifact [2, 3]: 1.00 % of Total and 1.16 % of Total | Assay (as % of nominal), Mean ([2]; 0.1M HCl, 24 hours ambient): 106.7 % of nominal | Assay (as % of nominal) ([2]; 0.1M HCl, 24 hours ambient, listed as active ingredient): 107.7 % of nominal and 105.4 % of nominal | Assay (as % of nominal), Mean ([2]; 0.1 M HCl, Initial): 114.4 % of nominal | Impurity peak area, RRT 0.41 ([2]; 0.1 M HCl, Initial): <0.05 % of Total | Impurity peak area, RRT 0.98* (first row) ([2]; 0.1 M HCl, Initial): 0.22 % of Total | Impurity peak area, RRT 0.98* (second row) ([2]; 0.1 M HCl, Initial): 0.12 % of Total | Impurity peak area, RRT 1.04* ([2]; 0.1 M HCl, Initial): <0.05 % of Total | Impurity peak area, RRT 1.24* ([2]; 0.1 M HCl, Initial): <0.05 % of Total | Impurity peak area, RRT 0.38 [2, 4]: 0.10 % of Total and 0.08 % of Total | Impurity peak area, RRT 0.61 [2, 4]: 0.13 % of Total and 0.08 % of Total | Impurity peak area, RRT 0.62 [2, 4]: 0.15 % of Total and 0.09 % of Total | Impurity peak area, RRT 0.84* [2, 4]: 0.31 % of Total and 0.26 % of Total | Impurity peak area, RRT 0.85 [2, 4]: <0.05 % of Total and 0.08 % of Total | Impurity peak area, RRT 0.92 [2, 4]: 0.18 % of Total and 0.14 % of Total | Impurity peak area, RRT 1.23* [2, 4]: 0.22 % of Total and 0.23 % of Total | Impurity peak area, RRT 1.35* [2, 4]: 0.05 % of Total and 0.06 % of Total | Impurity peak area, RRT 1.36* [2, 4]: 0.05 % of Total and 0.06 % of Total | Impurity peak area, Total [2, 4]: 2.00 % of Total and 1.47 % of Total | Impurity peak area, Total excluding artifact [2, 4]: 1.15 % of Total and 1.17 % of Total | Assay (as % of nominal) ([2]; 0.1M HCl, Initial, listed as active ingredient): 100.6 % of nominal and 127.9 % of nominal | Impurity peak area, RRT 0.41 ([2]; 5% SLS aq., 24 hour): <0.05 % of Total | Impurity peak area, RRT 0.62 ([2]; 5% SLS aq., 24 hour): 0.08 % of Total | Impurity peak area, RRT 0.85 ([2]; 5% SLS aq., 24 hour): NBD | Impurity peak area, RRT 0.92 ([2]; 5% SLS aq., 24 hour): 0.05 % of Total | Impurity peak area, RRT 0.98* (first row) ([2]; 5% SLS aq., 24 hour): 0.24 % of Total | Impurity peak area, RRT 1.04* ([2]; 5% SLS aq., 24 hour): 0.06 % of Total | Impurity peak area, RRT 1.24* ([2]; 5% SLS aq., 24 hour): <0.05 % of Total | Impurity peak area, RRT 1.36* ([2]; 5% SLS aq., 24 hour): <0.05 % of Total | Impurity peak area, RRT 0.38 [2, 5]: 0.10 % of Total and 0.07 % of Total | Impurity peak area, RRT 0.61 [2, 5]: 0.07 % of Total and 0.06 % of Total | Impurity peak area, RRT 0.83 [2, 5]: 0.30 % of Total and 0.16 % of Total | Impurity peak area, RRT 0.84* [2, 5]: 0.32 % of Total and 0.30 % of Total | Impurity peak area, RRT 0.86^$ (PDA spectra unrelated to the active ingredient) [2, 5]: 0.05 % of Total and 0.07 % of Total | Impurity peak area, RRT 0.98* (second row) [2, 5]: 0.13 % of Total and 0.12 % of Total | Impurity peak area, RRT 1.23* [2, 5]: 0.06 % of Total and 0.07 % of Total | Impurity peak area, RRT 1.35* [2, 5]: 0.07 % of Total and 0.06 % of Total | Impurity peak area, Total [2, 5]: 1.53 % of Total and 1.34 % of Total | Impurity peak area, Total excluding artifact [2, 5]: 0.93 % of Total and 0.90 % of Total | Assay (as % of nominal), Mean ([2]; 5% SLS aq., 24 hours ambient): 100.8 % of nominal | Assay (as % of nominal) ([2]; 5% SLS aq., 24 hours ambient, listed as active ingredient): 99.4 % of nominal and 102.3 % of nominal | Assay (as % of nominal), Mean ([2]; 5% SLS aq., Initial): 103.3 % of nominal | Impurity peak area, RRT 0.84* ([2]; 5% SLS aq., Initial): 0.32 % of Total | Impurity peak area, RRT 0.86^$ (PDA spectra unrelated to the active ingredient) ([2]; 5% SLS aq., Initial): <0.05 % of Total | Impurity peak area, RRT 0.98* (first row) ([2]; 5% SLS aq., Initial): 0.24 % of Total | Impurity peak area, RRT 0.98* (second row) ([2]; 5% SLS aq., Initial): 0.12 % of Total | Impurity peak area, RRT 1.24* ([2]; 5% SLS aq., Initial): <0.05 % of Total | Impurity peak area, RRT 1.36* ([2]; 5% SLS aq., Initial): 0.05 % of Total | Impurity peak area, RRT 0.92 [2, 6]: 0.05 % of Total and <0.05 % of Total | Impurity peak area, RRT 1.04* [2, 6]: 0.05 % of Total and <0.05 % of Total | Impurity peak area, RRT 1.23* [2, 6]: 0.06 % of Total and 0.07 % of Total

— US20260207560A1, “PLURALITY OF GRANULES” (priority 2022, published 2026)
